Measured values from paper PMC9739105, “Myotoxin-3 from the Pacific Rattlesnake Crotalus oreganus oreganus Venom Is a New Microtubule-Targeting Agent” (Molecules, 2022).
Where no end group is shown, it is not given here.

Experiments:
cell = conditions: ref [24]; cited from earlier work
Source text: Moreover, myotoxin-3 altered the dynamics of microtubules in MCF-7 cells (Table 1). […] Disturbing the dynamic instability of microtubules is a hallmark o ...

[1] = reference not given; cited from earlier work
Source text: In summary, peak 1 contains two 45-residue peptides, i.e., myotoxin-3 (45-residue His^5-myotoxin-3) and one isoform with Leucine at position 5 (45-residue Leu^5-myotoxin-3). Peak 2 contains two shorter isoforms (43 residues) of myotoxin-3 with either Histidine (43-residue His^5-myotoxin-3) or Leucine at position 5 (43-residue Leu^5-myotoxin-3) (Figure 3). This structure resemblance explains the similarity in their chromatographic behavior.

HeLa cells = conditions: ref [30]; cited from earlier work
Source text: (§1) We also observed a different response of MCF-7 and U87 cells when measuring cell viability upon myotoxin-3 treatment. […] The tubulin isotype composition impacts the structural properties of microtubules and tunes their dynamics. Tubulin is also subjected to a large diversity of post-translational modifications that a ...

MCF-7 cells = conditions: ref [30]; cited from earlier work
Source text: as §1

EB1 = conditions: through phosphorylation of EB1 by GSK3; ref [34]; cited from earlier work
[2] = system: bacteria/fungi (anti-microbial activity); conditions: without disulfide bonds; ref [18],[19]; cited from earlier work
[3] = molecular target: lamb brain αβ-tubulin heterodimer (lamb (purified from lamb brain)); experiment: ITC; PEAQ-ITC, 20 °C, 55 µM tubulin in the cell, 2.2 mM myotoxin 3 in the syringe, 20 mM sodium phosphate pH 6.5, 1 mM TCEP, 0.1 mM GTP (non-assembly buffer), one-set-of-sites model

Molecule: crotamine
- Cell penetration (cell): cell-penetrating properties
- Anti-proliferative effect [1]: displaying an anti-proliferative effect

Molecule: CC[C@]1(O)C[C@H]2CN(CCc3c([nH]c4ccccc34)[C@@](C(=O)OC)(c3cc4c(cc3OC)N(C=O)[C@H]3[C@@](O)(C(=O)OC)[C@H](OC(C)=O)[C@]5(CC)C=CCN6CC[C@]43[C@@H]65)C2)C1 [vincristine]
- Response of cells to vincristine (HeLa cells): detached and died
- Response of cells to vincristine (MCF-7 cells): reattached to the culture flask after a failed mitosis and remained viable

Molecule: C[C@@H]1O[C@@H](O[C@@H]2C=C3CC[C@@H]4[C@H](CC[C@]5(C)[C@@H](c6ccc(=O)oc6)CC[C@]45O)[C@@]3(C)CC2)[C@H](O)[C@H](O)[C@H]1O [proscillaridin A]
- Effect on microtubule dynamics (EB1): affecting microtubule dynamics through the phosphorylation of EB1 by GSK3

Molecule: DTT-reduced crotamine: DTT-reduced crotamine (YKQCHKKGGHCFPKEKICLPPSSDFGKMDCRWRWKCCKKGSG; DTT-reduced; UniProt Q9PWF3 23-64, looked up)
- Antimicrobial activity [2]: kept their antimicrobial activity

Molecule: C[C@]12CC[C@H](O)C[C@H]1CC[C@@H]1[C@@H]2CC[C@]2(C)[C@@H](c3ccc(=O)oc3)CC[C@]12O [bufalin]
- Effect on microtubule dynamics (EB1): affecting microtubule dynamics through the phosphorylation of EB1 by GSK3

Molecule: non-structured crotamine: non-structured crotamine (without disulfide bonds) (YKQCHKKGGHCFPKEKICLPPSSDFGKMDCRWRWKCCKKGSG; without disulfide bonds; UniProt Q9PWF3 23-64, looked up)
- Antimicrobial activity [2]: keeps its anti-microbial activity

Molecule: non-structured recombinant crotamine: non-structured recombinant crotamine expressed in bacteria (YKQCHKKGGHCFPKEKICLPPSSDFGKMDCRWRWKCCKKGSG; also: recombinant, without disulfide bonds; UniProt Q9PWF3 23-64, looked up)
- Antimicrobial activity [2]: kept their antimicrobial activity

Molecule: YKRCHKKGGHCFPKTVICLPPSSDFGKMDCRWKWKCCKKGSVNNA (cysteines not oxidized (no disulfide bonds)) [synthetic non-oxidized myotoxin-3 (without disulfide bonds)]
- Kd [3]: 5.3 µM
- stoichiometry N ([3]; scale: myotoxin-3 molecules per tubulin heterodimer): 2
